Measurements: patent US9247759B2, “Identification of human T2R receptors that respond to bitter compounds that elicit the bitter taste in compositions, and the use thereof in assays to identify compounds that inhibit (block) bitter taste in compositions and use thereof” (SENOMYX, INC., priority 2007, dated 2016)
Like-named read-outs stand apart in the source and are kept apart here.

Molecular target: hT2R8 (Homo sapiens (Human), UniProt Q9NYW2)
Assay: hT2R8 antagonist high-throughput FLIPR assay, stable cell line with G16g44, agonist andrographolide
Type: cell-based
Summary of the method: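 HEK293 cells stably co-expressing hT2R8 and chimeric G16g44, read on FLIPR. Test compounds added together with andrographolide (200 μM), which drives the receptor to 70–80% of maximal activity; antagonism seen as reduced agonist response.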

[1] = read-out: IC50 on hT2R8 bitter receptor
[2] = table after Example 10-97, read-out: hT2R8 IC50
[3] = table after Example 12-37, read-out: hT2R8 IC50

Sequence of hT2R8 (Q9NYW2 whole entry): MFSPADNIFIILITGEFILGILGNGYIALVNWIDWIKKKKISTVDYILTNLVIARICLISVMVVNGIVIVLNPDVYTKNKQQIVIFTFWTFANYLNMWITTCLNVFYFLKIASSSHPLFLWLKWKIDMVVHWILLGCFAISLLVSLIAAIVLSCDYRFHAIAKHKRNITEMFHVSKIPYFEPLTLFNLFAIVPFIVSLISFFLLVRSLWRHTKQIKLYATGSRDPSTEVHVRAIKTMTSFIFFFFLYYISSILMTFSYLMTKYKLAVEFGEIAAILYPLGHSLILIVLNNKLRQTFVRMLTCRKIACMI

Cc1noc(C)c1Cn1cc(N2C(=O)CN(Cc3cccc(CO)n3)C2=O)cn1 [Example 10-71, 3-(1-((3,5-dimethylisoxazol-4-yl)methyl)-1H-pyrazol-4-yl)-1-((6-(hydroxymethyl)pyridin-2-yl)methyl)imidazolidine-2,4-dione]
IC50 [1]: 0.72 µM | IC50 [2]: 0.721 µM

Cc1cccc(C(=O)Nc2cnn(Cc3c(C)noc3C)c2)c1 [Example 4-28, N-(1-((3,5-dimethylisoxazol-4-yl)methyl)-1H-pyrazol-4-yl)-3-methylbenzamide]
IC50 (Table A, read-out: hT2R8 IC50): 0.57 µM

COc1cccc(CNC(=O)CC2NC(=O)N(c3cnn(Cc4c(C)noc4C)c3)C2=O)c1 (stereo not drawn) [Example 10-50, 2-(1-(1-((3,5-dimethylisoxazol-4-yl)methyl)-1H-pyrazol-4-yl)-2,5-dioxoimidazolidin-4-yl)-N-(3-methoxybenzyl)acetamide]
IC50 [1]: 1.7 µM | IC50 [2]: 1.77 µM

CCCCn1c(=O)n(-c2cnn(Cc3c(C)noc3C)c2)c(=O)n1Cc1ccccc1 [Example 10-95]
IC50 [1]: 0.41 µM | IC50 [2]: 0.409 µM

COc1ccc(CN2C(=O)N(c3cnn(Cc4c(C)noc4C)c3)C(=O)C2(C)C)nc1 [Example 12-51, 3-(1-((3,5-dimethylisoxazol-4-yl)methyl)-1H-pyrazol-4-yl)-1-((5-methoxypyridin-2-yl)methyl)-5,5-dimethylimidazolidine-2,4-dione]
IC50 [3]: 0.19 µM

Cc1noc(C)c1Cn1cc(NC(=O)C(c2ccccc2)c2ccccc2)cn1 [Example 4-44, N-(1-((3,5-dimethylisoxazol-4-yl)methyl)-1H-pyrazol-4-yl)-2,2-diphenylacetamide]
IC50 (Table A, read-out: hT2R8 IC50): 5.19 µM

Cc1c[nH]c(C(=O)Nc2cnn(Cc3c(C)noc3C)c2)c1 [Example 4-45, N-(1-((3,5-dimethylisoxazol-4-yl)methyl)-1H-pyrazol-4-yl)-4-methyl-1H-pyrrole-2-carboxamide]
IC50 (Table A, read-out: hT2R8 IC50): 0.72 µM

COc1cccc(CCN2CC(=O)N(c3cnn(Cc4c(C)noc4C)c3)C2=O)c1 [Example 10-85, 3-(1-((3,5-dimethylisoxazol-4-yl)methyl)-1H-pyrazol-4-yl)-1-(3-methoxyphenethyl)imidazolidine-2,4-dione]
IC50 [1]: 0.16 µM | IC50 [2]: 0.158 µM

Cc1noc(C)c1Cn1cc(N2C(=O)CN(Cc3ccccc3F)C2=O)cn1 [Example 10-21, 3-(1-((3,5-dimethylisoxazol-4-yl)methyl)-1H-pyrazol-4-yl)-1-(2-fluorobenzyl)imidazolidine-2,4-dione]
IC50 [2]: 0.09 µM | IC50 (unit uM, read-out: IC50 on hT2R08 bitter receptor): 0.08 µM

Cc1noc(C)c1Cn1cc(NC(=O)[C@H](C)c2ccccc2)cn1 [Example 4-42, (R)-N-(1-((3,5-dimethylisoxazol-4-yl)methyl)-1H-pyrazol-4-yl)-2-phenylpropanamide]
IC50 (Table A, read-out: hT2R8 IC50): 3.72 µM

COc1ccc(CC(=O)Nc2cnn(Cc3c(C)noc3C)c2)cc1O [Example 4-70, N-(1-((3,5-dimethylisoxazol-4-yl)methyl)-1H-pyrazol-4-yl)-2-(3-hydroxy-4-methoxyphenyl)acetamide]
IC50 (Table A, read-out: hT2R8 IC50): 3.1 µM

Cc1noc(C)c1Cn1cc(N2CN(Cc3ccccc3)CN(CCc3ccccc3)C2=O)cn1 [Example 9-7, 5-benzyl-1-(1-((3,5-dimethylisoxazol-4-yl)methyl)-1H-pyrazol-4-yl)-3-phenethyl-1,3,5-triazinan-2-one]
IC50 [1]: 2.64 µM | IC50 [2]: 6.58 µM

Cc1noc(C)c1Cn1cc(NC(=O)Cc2ccoc2)cn1 [Example 4-58, N-(1-((3,5-dimethylisoxazol-4-yl)methyl)-1H-pyrazol-4-yl)-2-(furan-3-yl)acetamide]
IC50 (Table A, read-out: hT2R8 IC50): 8.66 µM

Cc1noc(C)c1Cn1cc(N2C(=O)CN(CC3CCCCC3)C2=O)cn1 [Example 10-74, 1-(cyclohexylmethyl)-3-(1-((3,5-dimethylisoxazol-4-yl)methyl)-1H-pyrazol-4-yl)imidazolidine-2,4-dione]
IC50 [1]: 0.28 µM | IC50 [2]: 0.276 µM

CCn1c(=O)n(-c2cnn(Cc3c(C)noc3C)c2)c(=O)n1Cc1ccccc1 [Example 10-91, 1-benzyl-4-(1-((3,5-dimethylisoxazol-4-yl)methyl)-1H-pyrazol-4-yl)-2-ethyl-1,2,4-triazolidine-3,5-dione]
IC50 [1]: 0.04 µM | IC50 [2]: 0.041 µM

Cc1noc(C)c1Cn1cc(C(=O)NCc2cccs2)sc1=O [Example 4-116, 3-((3,5-dimethylisoxazol-4-yl)methyl)-2-oxo-N-(thiophen-2-ylmethyl)-2,3-dihydrothiazole-5-carboxamide]
IC50 (Table A, read-out: hT2R8 IC50): 2.28 µM

Cc1noc(C)c1Cn1cc(N2C(=O)[C@H](C(C)C)N(Cc3cccc(O)c3)C2=O)cn1 [Example 12-8, (S)-3-(1-((3,5-dimethylisoxazol-4-yl)methyl)-1H-pyrazol-4-yl)-1-(3-hydroxybenzyl)-5-isopropylimidazolidine-2,4-dione]
IC50 [1]: 0.65 µM

Cc1noc(C)c1Cn1cc(NC(=O)C(CO)c2ccccc2)cn1 (stereo not drawn) [Example 4-40, N-(1-((3,5-dimethylisoxazol-4-yl)methyl)-1H-pyrazol-4-yl)-3-hydroxy-2-phenylpropanamide]
IC50 (Table A, read-out: hT2R8 IC50): 0.96 µM

Cc1noc(C)c1Cn1cc(NC(=O)CCCc2ccccc2)cn1 [Example 4-56, N-(1-((3,5-dimethylisoxazol-4-yl)methyl)-1H-pyrazol-4-yl)-4-phenylbutanamide]
IC50 (Table A, read-out: hT2R8 IC50): 0.83 µM

Cc1noc(C)c1Cn1cc(N2C(=O)[C@@H](C)N(Cc3ccccc3)C2=O)cn1 [Example 12-37, (R)-1-benzyl-3-(1-((3,5-dimethylisoxazol-4-yl)methyl)-1H-pyrazol-4-yl)-5-methylimidazolidine-2,4-dione]
IC50 [1]: 0.01 µM

Cc1noc(C)c1Cn1cc(N2C(=O)N(Cc3c(F)cccc3F)C(C)(C)C2=O)cn1 [Example 12-44, 1-(2,6-difluorobenzyl)-3-(1-((3,5-dimethylisoxazol-4-yl)methyl)-1H-pyrazol-4-yl)-5,5-dimethylimidazolidine-2,4-dione]
IC50 [3]: 0.1 µM

Cc1ccc(C(=O)Nc2cnn(Cc3c(C)noc3C)c2)o1 [Example 4-54, N-(1-((3,5-dimethylisoxazol-4-yl)methyl)-1H-pyrazol-4-yl)-5-methylfuran-2-carboxamide]
IC50 (Table A, read-out: hT2R8 IC50): 3.19 µM

Cc1noc(C)c1Cn1cc(NC(=O)c2ccc3c(c2)OCCO3)cn1 [Example 4-88, N-(1-((3,5-dimethylisoxazol-4-yl)methyl)-1H-pyrazol-4-yl)-2,3-dihydrobenzo[b][1,4]dioxine-6-carboxamide]
IC50 (Table A, read-out: hT2R8 IC50): 0.4 µM

Cc1noc(C)c1Cn1cc(N2C(=O)N(Cc3cccc(OCCN(C)C)c3)C(C)(C)C2=O)cn1 [Example 12-87, 1-(3-(2-(dimethylamino)ethoxy)benzyl)-3-(1-((3,5-dimethylisoxazol-4-yl)methyl)-1H-pyrazol-4-yl)-5,5-dimethylimidazolidine-2,4-dione]
IC50 [3]: 2.08 µM

Cc1noc(C)c1Cn1cc(N2C(=O)CN(CCc3cccc4ccccc34)C2=O)cn1 [Example 10-80]
IC50 [1]: 1.27 µM | IC50 [2]: 0.927 µM

Cc1noc(C)c1Cn1cc(NS(=O)(=O)c2ccccc2F)cn1 [Example 4-100, N-(1-((3,5-dimethylisoxazol-4-yl)methyl)-1H-pyrazol-4-yl)-2-fluorobenzenesulfonamide]
IC50 (Table A, read-out: hT2R8 IC50): 8.51 µM

COc1cccc(C(=O)Nc2nnn(Cc3c(C)noc3C)n2)c1 [Example 4-114, N-(2-((3,5-dimethylisoxazol-4-yl)methyl)-2H-tetrazol-5-yl)-3-methoxybenzamide]
IC50 (Table A, read-out: hT2R8 IC50): 1.87 µM
